According to patent US20230295201A1 (Gilead Sciences, Inc., priority 2020, published 2023):
Read-outs that look alike come from different tables or passages of the source.

Columns and labels:
Format in all cases: cell-based
DENV2 replicon = experiment: DENV-2 Huh-7 Rep EC50 (replicon luminescence); conditions: read-out: DENV-2 Huh-7 Rep EC50
Procedure: In 384 well plates (Greiner, Cat #781091), compounds were acoustically transferred at 200 nl per well in a 8 compound (4 replicates) or 40 compound dose response format (3 replicates). For all plates tested, Balapiravir, GS-5734 and NITD008 were included as positive inhibition controls alongside 0% inhibition, DMSO-only negative control wells. Following compound addition, Huh-7 cells containing the DENV2 replicon construct were harvested following standard cell culture procedures and were adjusted to a concentration of 1.25E5 cells/mL in cell culture media composed of cDMEM without genticin. 40 μL of the cell stock was then added to each well for a final cell density of 5,000 cells/well. Cell and compound mixtures were incubated at 37° C./5% CO2 for 48 hours. Prior to harvesting cells, EnduRen Live Cell Substrate (Promega, Cat #E6481) was prepared by suspending 3.4 mg into 100 uL of DMSO to generate a 60 mM stock solution. The stock solution was then diluted 1:200 in pre-warmed cDMEM and 10 uL of this diluted solution was added to each well of the 384 well plates. Plates were then centrifuged at 500 rpm briefly and were placed on a plate shaker for 2 min. Following mixing, plates were incubated at […] for 1.5 hours prior to measuring luminescence on an Envision luminometer.

RSV strain A2 = experiment: RSV HEp-2 EC50 (infectious cytopathic cell protection assay); conditions: HEp-2 cells, RSV A2, 4 days, read-out: RSV HEp-2 EC50
Procedure: Antiviral activity against RSV is determined using an infectious cytopathic cell protection assay in HEp-2 cells. In this assay, compounds inhibiting viral infection and/or replication produce a cytoprotective effect against the virus-induced cell killing that can be quantified using a cell viability reagent. The techniques used here are novel adaptations of methods described in published literature (Chapman et al., Antimicrob Agents Chemother. 2007, 51(9):3346-53.)
HEp-2 cells are obtained from ATCC (Manassas, VI) and maintained in MEM media supplemented with 10% fetal bovine serum and penicillin/streptomycin. Cells are passaged twice a week and kept at subconfluent stage. Commercial stock of RSV strain A2 (Advanced Biotechnologies, Columbia, MD) is titered before compound testing to determine the appropriate dilution of the virus stock that generates desirable cytopathic effect in HEp-2 cells.
For antiviral tests, HEp-2 cells are grown in large cell culture flasks to near confluency but not fully so. The compounds to be tested are prediluted in DMSO in 384-well compound dilution plates, either in an 8 or 40 sample per plate standardized dose response format. 3-fold serial dilution increments of each test compound are prepared in the plates and test samples are transferred via acoustic transfer apparatus (Echo, Labcyte) at 100 nL per well into cell culture assay 384-well plates. Each compound dilution is transferred in single or quadruplicate samples into dry assay plates, which are stored until assay is ready to go. The positive and negative controls are laid out in opposite on ends of the plate in vertical blocks (1 column).
Subsequently, an infectious mixture is prepared using an appropriate dilution of virus stock previously determined by titration with cells at a density of 50,000/ml and 20 µL/well is added to test plates w/compounds via automation (uFlow, Biotek). Each plate includes negative and positive controls (16 replicates each) to create 0% and 100% virus inhibition standards, respectively. Following the infection with RSV, testing plates are incubated for 4 days in a 37° C. cell culture incubator. After the incubation, a cell viability reagent, Cell TiterGlo (Promega, Madison, WI) is added to the assay plates, which are incubated briefly, and a luminescent readout is measured (Envision, Perkin Elmer) in all the assay plates. The RSV-induced cytopathic effect, percentage inhibition, is determined from the levels of remaining cell viability. […] Various potent anti-RSV tool compounds are used as positive controls for antiviral activity.

RSV A2 = experiment: RSV NHBE EC50 (RSV A2 antiviral assay in normal human bronchial epithelial cells); conditions: NHBE cells, RSV A2, 4 days, read-out: RSV NHBE EC50
Procedure: Normal human bronchial epithelial (NHBE) cells were purchased from Lonza (Walkersville, MD, Cat #CC-2540) and cultured in Bronchial Epithelial Growth Media (BEGM) (Lonza, Walkersville, MD, Cat #CC-3170). The cells were passaged 1-2 times per week to maintain <80% confluency. The NHBE cells were discarded after 6 passages in culture.
To conduct the RSV A2 antiviral assay, NHBE cells were plated in 96-well plates at a density of 7,500 cells per well in BEGM and allowed to attach overnight at 37° C. Following attachment, 100 μL of cell culture media was removed and 3-fold serially diluted compound was added using a Hewlett-Packard D300 Digital Dispenser. The final concentration of DMSO was normalized to 0.05%. Following compound addition, the NHBE cells were infected by the addition of 100 μL of RSV A2 at a titer of 1×10^4.5 tissue culture infectious doses/mL in BEGM and then incubated at 37° C. for 4 days. […] The mixtures were incubated for 10 minutes at 25° C., and the luminescence signal was quantified on an Envision luminescence plate reader.

HRV16 = HRV16 HELA EC50 (cytopathic effect in H1-HeLa cells)
Procedure: H1-HeLa cells, cultured in complete DMEM medium containing 10% heat-inactivated FBS and 1% Penicillin/Streptomycin, were seeded in 96 well plates at 3000 cells/well one day prior to compound dosing and infection. The antiviral activity of each compound was measured in triplicate. Compounds were added directly to the cell cultures in serial 3-fold dilutions using the HP300 digital dispenser (Hewlett Packard, Palo Alto, CA) immediately prior to infection. The plates were transferred to BSL-2 containment and the appropriate dilution of virus stock, previously determined by titration and prepared in cell culture media, was added to test plates containing cells and serially diluted compounds. Each plate included 6 wells of infected untreated cells and 6 wells of uninfected cells that served as 0% and 100% virus inhibition control, respectively. Following the infection, test plates were incubated for 96 h in a tissue culture incubator set to 33° C./5% CO2. Following incubation, the H1-HeLa cells were removed from incubation and allowed to equilibrate to 25° C. Cell viability was determined by removing 100 μL of culture medium and adding 100 μL of Cell-Titer Glo viability reagent. The mixtures were incubated on a shaker for 10 minutes at 25° C., and the luminescence signal was quantified on an Envision luminescence plate reader.

[1] = human respiratory syncytial virus, 96 h
[2] = human respiratory syncytial virus, HEp-2, 96 h
[3] = 96 h, H1-HeLa cells, 33° C., read-out: HRV16 HELA EC50
[4] = human respiratory syncytial virus, NHBE, 96 h
[5] = Dengue virus, DENV2, Huh-7, 48 h, Huh-7 replicon cells, 48 hours

CCC(CC)COC(=O)[C@H](C)NP(=O)(N[C@@H](C)C(=O)OC1CCCCC1)OC[C@@]1(C#N)O[C@@H](c2ccc3c(N)ncnn23)[C@H](O)[C@@H]1O (mixture of isomers) [Example 30, cyclohexyl ((((2R,3S,4R,5S)-5-(4-aminopyrrolo[2,1-f][1,2,4]triazin-7-yl)-2-cyano-3,4-dihydroxytetrahydrofuran-2-yl)methoxy)(((S)-1-(2-ethylbutoxy)-1-oxopropan-2-yl)amino)phosphoryl)-L-alaninate]
EC50 (DENV2 replicon; Dengue virus, DENV2, Huh-7, 48 h): 60700 nM | EC50 (RSV strain A2; [1]): 844 nM | EC50 (RSV A2; [1]): 44 nM

C[C@H](NP(=O)(OC[C@@]1(C#N)O[C@@H](c2ccc3c(N)ncnn23)[C@H](O)[C@@H]1O)Oc1ccccc1)C(=O)O[C@@H]1CCN(C)C1 (mixture of isomers) [Example 61, (R)-1-methylpyrrolidin-3-yl ((((2R,3S,4R,5S)-5-(4-aminopyrrolo[2,1-f][1,2,4]triazin-7-yl)-2-cyano-3,4-dihydroxytetrahydrofuran-2-yl)methoxy)(phenoxy)phosphoryl)-L-alaninate]
EC50 (RSV strain A2; [2]): 2290 nM | EC50 (HRV16; [3]): 23200 nM | EC50 (RSV A2; [4]): ≥ 5000 nM

C[C@H](NP(=O)(OC[C@@]1(C#N)O[C@@H](c2ccc3c(N)ncnn23)[C@H](O)[C@@H]1O)Oc1ccccc1)C(=O)O[C@@H]1CCOC1 (mixture of isomers) [Example 68, (R)-Tetrahydrofuran-3-yl ((((2R,3S,4R,5S)-5-(4-aminopyrrolo[2,1-f][1,2,4]triazin-7-yl)-2-cyano-3,4-dihydroxytetrahydrofuran-2-yl)methoxy)(phenoxy)phosphoryl)-L-alaninate]
EC50 (RSV strain A2; [2]): 247 nM | EC50 (HRV16; [3]): 4720 nM

C[C@H](N[P@@](=O)(OC[C@@]1(C#N)O[C@@H](c2ccc3c(N)ncnn23)[C@H](O)[C@@H]1O)Oc1ccccc1)C(=O)OC1CCCCC1 (single isomer, unassigned) [Example 5]
EC50 (RSV strain A2; [2]): 2740 nM | EC50 (HRV16; [3]): 654 nM | EC50 (RSV A2; [4]): 630 nM

C[C@H](NP(=O)(OC[C@@]1(C#N)O[C@@H](c2ccc3c(N)ncnn23)[C@H](O)[C@@H]1O)Oc1ccccc1)C(=O)OC1CCCCCCC1 (single isomer, unassigned) [Example 172]
EC50 (DENV2 replicon; [5]): 31400 nM | EC50 (RSV strain A2): 1450 nM | EC50 (RSV A2; [4]): > 516 nM

C[C@H](NP(=O)(OC[C@@]1(C#N)O[C@@H](c2ccc3c(N)ncnn23)[C@H](O)[C@@H]1O)Oc1ccccc1)C(=O)OC1CCC(F)(F)CC1 (single isomer, unassigned) [Example 175]
EC50 (DENV2 replicon; Huh-7 replicon cells, 48 hours): > 100000 nM | EC50 (RSV strain A2): 801 nM | EC50 (RSV A2): 539 nM

CCC(CC)COC(=O)[C@H](C)NP(=O)(N[C@@H](C)C(=O)OC1CCCCC1)OC[C@@]1(C#N)O[C@@H](c2ccc3c(N)ncnn23)[C@H](O)[C@@H]1O (single isomer, unassigned) [Example 228]
EC50 (HRV16; H1-HeLa cells, 96 h, 33° C.; read-out: HRV16 HELA EC50): 4720 nM | EC50 (RSV A2): 2040 nM

CC(C)OC(=O)[C@H](C)NP(=O)(OC[C@@]1(C#N)O[C@@H](c2ccc3c(N)ncnn23)[C@H](O)[C@@H]1O)Oc1ccc(C(=O)N(C)C)cc1 (stereo partly drawn) [Example 43, Isopropyl ((((2R,3S,4R,5S)-5-(4-aminopyrrolo[2,1-f][1,2,4]triazin-7-yl)-2-cyano-3,4-dihydroxytetrahydrofuran-2-yl)methoxy)(4-(dimethylcarbamoyl)phenoxy)phosphoryl)-L-alaninate]
EC50 (DENV2 replicon; [5]): > 100000 nM | EC50 (RSV strain A2; [2]): 55300 nM | EC50 (RSV A2; [4]): ≥ 5000 nM

C[C@H](NP(=O)(OC[C@@]1(C#N)O[C@@H](c2ccc3c(N)ncnn23)[C@H](O)[C@@H]1O)Oc1ccccc1)C(=O)OCC12CCN(CC1)CC2 (stereo partly drawn) [Example 213, quinuclidin-4-ylmethyl ((((2R,3S,4R,5S)-5-(4-aminopyrrolo[2,1-f][1,2,4]triazin-7-yl)-2-cyano-3,4-dihydroxytetrahydrofuran-2-yl)methoxy)(phenoxy)phosphoryl)-L-alaninate]
EC50 (DENV2 replicon; [5]): > 100000 nM | EC50 (RSV strain A2; [2]): 3840 nM | EC50 (RSV A2; [4]): > 5000 nM

CCC(CC)COC(=O)CNP(=O)(NCC(=O)OCC(CC)CC)OC[C@@]1(C#N)O[C@@H](c2ccc3c(N)ncnn23)[C@H](O)[C@@H]1O [Example 226, 2-Ethylbutyl ((((2R,3S,4R,5S)-5-(4-aminopyrrolo[2,1-f][1,2,4]triazin-7-yl)-2-cyano-3,4-dihydroxytetrahydrofuran-2-yl)methoxy)((2-(2-ethylbutoxy)-2-oxoethyl)amino)phosphoryl)glycinate]
EC50 (RSV strain A2; [1]): 1910 nM | EC50 (RSV A2; [1]): 2550 nM

C[C@H](NP(=O)(OC[C@@]1(C#N)O[C@@H](c2ccc3c(N)ncnn23)[C@H](O)[C@@H]1O)Oc1ccccc1)C(=O)OCC1CCCCC1 (stereo partly drawn) [Example 246, cyclohexylmethyl ((((2R,3S,4R,5S)-5-(4-aminopyrrolo[2,1-f][1,2,4]triazin-7-yl)-2-cyano-3,4-dihydroxytetrahydrofuran-2-yl)methoxy)(phenoxy)phosphoryl)-L-alaninate]
EC50 (DENV2 replicon; [5]): 5110 nM | EC50 (RSV strain A2; [2]): 35 nM | EC50 (RSV A2; [4]): 41 nM

COC(=O)[C@H](C)NP(=O)(OC[C@@]1(C#N)O[C@@H](c2ccc3c(N)ncnn23)[C@H](O)[C@@H]1O)Oc1cccnc1 (stereo partly drawn) [Example 249, methyl ((((2R,3S,4R,5S)-5-(4-aminopyrrolo[2,1-f][1,2,4]triazin-7-yl)-2-cyano-3,4-dihydroxytetrahydrofuran-2-yl)methoxy)(pyridin-3-yloxy)phosphoryl)-L-alaninate]
EC50 (DENV2 replicon; [5]): > 50000 nM | EC50 (RSV A2; [4]): ≥ 5000 nM
